Assay results as given in patent US12226610B2, “Treatment of pain associated with total knee arthroplasty with sustained-release liposomal anesthetic compositions” (Pacira Pharmaceuticals, Inc., priority 2022, dated 2025).
Structures can show the parent of a compound that is named as a salt.

Tests used:
[1] = system: subjects undergoing primary unilateral TKA; test: Time to first opioid consumption (rescue medication) post-surgery; format: in vivo, human
Experimental: (§1) This was a Phase 3, multicenter, randomized, double blind, active controlled study of 167 subjects undergoing primary unilateral TKA under spinal anesthesia. The study consisted of 2 cohorts that were enrolled in parallel. Cohort 1 enrolled 46 subjects to obtain information on the PK profile, pharmacodynamics (PD), efficacy, and safety. Cohort 2 enrolled 121 subjects to obtain information on efficacy and safety. An adaptive study design was used in this study, with an interim analysis conducted by an unblinded independent review committee to evaluate sample size assumptions and futility. […]
(§2) An unscheduled pain intensity assessment using the NRS (measured as “On a scale from 0 to 10, where 0 equals no pain and 10 equals the worst possible pain, how much pain are you experiencing in your operative knee right now?”) was to be completed immediately prior to administration of any breakthrough pain medication up to 96 hours post-surgery. Medications were administered as needed; opioids were not to be given on a pre-determined schedule. […]
(§3) Total postsurgical opioid consumption in OMED from 0 to 96 hours was analyzed using an ANCOVA model. Time to first postsurgical opioid medication was analyzed using the Kaplan Meier survival method. […]

[2] = system: subjects undergoing primary unilateral TKA; test: Total postsurgical opioid consumption (OMED) and opioid-free status; format: in vivo, human; conditions: any time interval up to 96 hours post-surgery
Experimental: as §1, §2, §3

[3] = system: subjects undergoing primary unilateral TKA; test: Safety assessments (TEAEs, SAEs, vital signs, EKG); parameters: species or system human; conditions: in vivo
From the text: Safety assessments included monitoring of AEs (including SAEs and adverse events of special interest [AESIs]), vital signs (temperature, resting heart rate, respiratory rate, oxygen saturation, and blood pressure), 12 lead EKG, and recording of concomitant medications.
Safety endpoints included incidence of treatment emergent adverse events and SAEs from start of the nerve block procedure through POD14; change from baseline in vital signs over time; and abnormal post-baseline EKG findings.
Adverse events and SAEs were recorded from the time of informed consent through POD14. Adverse events were coded using the Medical Dictionary for Regulatory Activities version 24.1 and summary tables were based on the Safety Analysis Set. A subject data listing was provided for all AEs, which included the reported term, preferred term, system organ class, treatment-emergent adverse event flag, study day of AE onset, AE start/stop date and time, relationship to study drug, frequency, severity, action taken with subject, outcome, and seriousness criteria.
Vital signs and their change from baseline were summarized with mean, median, and standard deviation at baseline and at each scheduled time point. The frequency and percentage of EKG findings (normal, abnormal/not clinically significant, and abnormal/clinically significant) were summarized at screening and each scheduled time point.
An AE can be defined as any untoward medical occurrence associated with the use of a drug in humans, whether or not considered drug related. An AE (also referred to as an adverse experience) could be any unfavorable and unintended sign (e.g., abnormal laboratory finding), symptom, or disease temporally associated with the use of a drug, without any judgment about causality. An AE could arise from any use of the drug (e.g., off-label use in combination with another drug) and from any route of administration, formulation, or dose, including an overdose.
An AE that occurred after administration of the study treatment was considered a treatment-emergent adverse event (TEAE). A continuous AE with varying grades of severity was to be recorded as 1 AE. The highest grade of severity experienced by that subject during the course of the continuous AE was to be recorded.
Assessment of the relationship of the AE to study drug after careful medical consideration on a case-by-case basis. […]

[4] = Plasma bupivacaine pharmacokinetics (Cohort 1); format: in vivo, human
Experimental: (§4) This was a Phase 3, multicenter, randomized, double blind, active controlled study of 167 subjects undergoing primary unilateral TKA under spinal anesthesia. The study consisted of 2 cohorts that were enrolled in parallel. Cohort 1 enrolled 46 subjects to obtain information on the PK profile, pharmacodynamics (PD), efficacy, and safety. Cohort 2 enrolled 121 subjects to obtain information on efficacy and safety. An adaptive study design was used in this study, with an interim analysis conducted by an unblinded independent review committee to evaluate sample size assumptions and futility.
(§5) On the day of surgery, prior to surgery, subjects in Cohort 1 and Cohort 2 were randomized (1:1) to receive an adductor canal block with a single dose of either 10 mL EXPAREL (133 mg) admixed with 10 mL 0.5% bupivacaine HCl (50 mg; from hereon referred to as the EXP133-ADMIX arm) or 10 mL 0.5% bupivacaine HCl (50 mg) mixed with 10 mL normal saline (from hereon referred to as the BUP50 arm). The total dose volume was consistent (20 mL) for all subjects.
(§6) Efficacy assessments included pain intensity scores focused on the operative knee using the Numeric Rating Scale (NRS), total postsurgical opioid consumption in OMED, time to first opioid consumption post-surgery, and subject satisfaction using the International Pain Outcome (IPO). Additionally, blood samples for PK analysis (area under the curve [AUC], maximum plasma concentration [Cmax], time of maximum plasma concentration [Tmax], including early and late Cmax and Tmax (EXP133-ADMIX arm only), apparent terminal elimination half-life [t½e1], apparent clearance [CL/F], and apparent volume of distribution [Vd/F]) and PD assessment data (sensory and motor block) were collected from Cohort 1 subjects.
Pharmacokinetic endpoints included area under the plasma concentration-versus-time curve, specifically from the time of dosing to the time of the last quantifiable concentration (AUC0-last) and AUC from the time of dosing to infinity (AUC0-∞); maximum plasma concentration (Cmax) and time of maximum plasma concentration (Tmax) for subjects treated with bupivacaine HCl; early and late Cmax and Tmax were determined for subjects treated with EXPAREL admixed with bupivacaine HCl (EXP133-ADMIX arm); t½e1; CL/F; Vd/F.

[5] = system: sensory block and motor block; test: Pharmacodynamic assessment of sensory and motor block (Cohort 1); format: in vivo, human
Experimental: as §4, §5, §6
Pharmacodynamic endpoints included: duration of the sensory block and motor block; time to onset of sensory block and motor block; and time to offset of sensory block and motor block.

CCCCN1CCCCC1C(=O)Nc1c(C)cccc1C (stereo not drawn) [BUP50, bupivacaine HCl]
median time to first rescue medication [1]: 3.63 h
subjects opioid free [2]: No subjects
subjects with clinically significant abnormal EKG findings ([3]; human): 1 subjects
subjects with ≥1 TEAE ([3]; human): 88.8%
subjects with ≥1 TEAE related to study drug ([3]; human): 2 subjects
subjects discontinued from the study following SAEs [3]: One
AUC(0-inf) ([4]; human, in vivo): 7450 ng·h/mL
AUC(0-t) ([4]; human, in vivo): 7280 ng·h/mL
concentration at 60 h ([4]; human, in vivo): 43.2 ng/mL
median time of Cmax ([4]; human, in vivo): 0.65 h
shape of mean bupivacaine concentration over time ([4]; in vivo): a single peak
Cmax ([4]; plasma bupivacaine): 333.89 ng/mL
subjects in whom knee extension was not present ([5]; 8 hours post dose (first time point with majority)): 71.4%
median duration of sensory block ([5]; in vivo): 11.63 h
time by which all subjects regained normal sensory function ([5]; post-dose): ≤ 24 h
